Assay results reported in ChEMBL document CHEMBL1201861, “Genomics of Drug Sensitity in Cancer screening data, Wellcome Trust Sanger Institute”.

Tests used:
Experiment in all cases: cells
NB6 = type: functional, cell-based, Homo sapiens; details: Homo sapiens, NB6
Description: SANGER: Inhibition of human NB6 cell growth in a cell viability assay.

SW982 = type: functional, cell-based; details: Homo sapiens;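 further: growth inhibition of SW982 cells, read out with a cell viability assay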
Description: SANGER: Inhibition of human SW982 cell growth in a cell viability assay.

BB65-RCC = type: functional, cell-based, Homo sapiens; details: Homo sapiens, BB65-RCC;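 further: growth inhibition of the cell line, measured with a cell viability assay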
Description: SANGER: Inhibition of human BB65-RCC cell growth in a cell viability assay.

SK-N-FI = type: functional, cell-based, Homo sapiens; details: Homo sapiens, SK-N-FI;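 further: cell viability assay measuring growth inhibition of human SK-N-FI cells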
Description: SANGER: Inhibition of human SK-N-FI cell growth in a cell viability assay.

EM-2 = type: functional, cell-based, Homo sapiens; details: Homo sapiens, EM-2;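 further: growth inhibition of EM-2 cells, read out with a cell viability assay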
Description: SANGER: Inhibition of human EM-2 cell growth in a cell viability assay.

MZ2-MEL = type: functional, cell-based, Homo sapiens; details: Homo sapiens, MZ2-MEL;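 further: growth inhibition of MZ2-MEL cells read out with a cell viability assay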
Description: SANGER: Inhibition of human MZ2-MEL cell growth in a cell viability assay.

MSTO-211H = type: functional, cell-based, Homo sapiens; details: Homo sapiens, MSTO-211H
Description: SANGER: Inhibition of human MSTO-211H cell growth in a cell viability assay.

DOHH-2 = type: functional, cell-based, Homo sapiens; details: Homo sapiens, DOHH-2;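 further: growth inhibition of human DOHH-2 cells, read out with a cell viability assay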
Description: SANGER: Inhibition of human DOHH-2 cell growth in a cell viability assay.

SJSA-1 = type: functional, cell-based, Homo sapiens; details: Homo sapiens, SJSA-1;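 further: growth inhibition of human SJSA-1 cells, read out through a cell viability measurement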
Description: SANGER: Inhibition of human SJSA-1 cell growth in a cell viability assay.

HCE-4 = type: functional, cell-based; details: Homo sapiens;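 further: cell viability assay measuring inhibition of growth in the human HCE-4 cell line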
Description: SANGER: Inhibition of human HCE-4 cell growth in a cell viability assay.

NEC8 = type: functional, cell-based, Homo sapiens; details: Homo sapiens, NEC8;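 further: growth inhibition of human NEC8 cells, read out by a cell viability assay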
Description: SANGER: Inhibition of human NEC8 cell growth in a cell viability assay.

KP-N-YS = type: functional, cell-based, Homo sapiens; details: Homo sapiens, KP-N-YS;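 further: cell viability assay measuring inhibition of cell line growth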
Description: SANGER: Inhibition of human KP-N-YS cell growth in a cell viability assay.

JAR = type: functional, cell-based, Homo sapiens; details: Homo sapiens, JAR;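 further: growth inhibition of human JAR cells determined with a cell viability assay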
Description: SANGER: Inhibition of human JAR cell growth in a cell viability assay.

MC116 = type: functional, cell-based, Homo sapiens; details: Homo sapiens, MC116;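 further: growth inhibition of MC116 cells, read out with a cell viability assay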
Description: SANGER: Inhibition of human MC116 cell growth in a cell viability assay.

NB13 = type: functional, cell-based, Homo sapiens; details: Homo sapiens, NB13;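 further: cell viability readout measuring growth inhibition of human NB13 cells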
Description: SANGER: Inhibition of human NB13 cell growth in a cell viability assay.

NCI-N87 = type: functional, cell-based; details: Homo sapiens;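 further: growth inhibition of human NCI-N87 cells, read out with a cell viability assay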
Description: SANGER: Inhibition of human NCI-N87 cell growth in a cell viability assay.

GCIY = type: functional, cell-based, Homo sapiens; details: Homo sapiens, GCIY;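 further: growth inhibition of the human GCIY cell line, read out by a cell viability assay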
Description: SANGER: Inhibition of human GCIY cell growth in a cell viability assay.

SW 954 = type: functional, cell-based, Homo sapiens; details: Homo sapiens, SW 954;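 further: growth inhibition of SW954 human cancer cells, read out as cell viability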
Description: SANGER: Inhibition of human SW954 cell growth in a cell viability assay.

KNS-42 = type: functional, cell-based; details: Homo sapiens;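 further: growth inhibition of KNS-42 cells, read out with a cell viability assay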
Description: SANGER: Inhibition of human KNS-42 cell growth in a cell viability assay.

NB69 = type: functional, cell-based, Homo sapiens; details: Homo sapiens, NB69;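 further: growth inhibition of NB69 cells, determined by a cell viability assay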
Description: SANGER: Inhibition of human NB69 cell growth in a cell viability assay.

TGBC24TKB = type: functional, cell-based; details: Homo sapiens;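 further: growth inhibition of human TGBC24TKB cells, read out with a cell viability assay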
Description: SANGER: Inhibition of human TGBC24TKB cell growth in a cell viability assay.

NCI-H1355 = type: functional, cell-based, Homo sapiens; details: Homo sapiens, NCI-H1355;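 further: growth inhibition of human NCI-H1355 cells, read out by a cell viability assay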
Description: SANGER: Inhibition of human NCI-H1355 cell growth in a cell viability assay.

CW-2 = type: functional, cell-based, Homo sapiens; details: Homo sapiens, CW-2;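 further: growth inhibition of CW-2 cells, read out by a cell viability assay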
Description: SANGER: Inhibition of human CW-2 cell growth in a cell viability assay.

C2BBe1 = type: functional, cell-based, Homo sapiens; details: Homo sapiens, C2BBe1;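 further: growth inhibition of C2BBe1 cells, read out through a viability assay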
Description: SANGER: Inhibition of human C2BBe1 cell growth in a cell viability assay.

DMS-114 = type: functional, cell-based, Homo sapiens; details: Homo sapiens, DMS-114
MV4-11 = type: functional, cell-based, Homo sapiens, MV-4-11; details: Homo sapiens, MV4-11;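 further: cell viability readout measuring growth inhibition of human MV-4-11 cells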
Description: SANGER: Inhibition of human MV-4-11 cell growth in a cell viability assay.

BB30-HNC = type: functional, cell-based, Homo sapiens; details: Homo sapiens, BB30-HNC;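 further: growth inhibition of the cultured cell line, read out by a cell viability assay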
Description: SANGER: Inhibition of human BB30-HNC cell growth in a cell viability assay.

HDLM-2 = type: functional, cell-based, Homo sapiens; details: Homo sapiens, HDLM-2;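 further: cell viability assay measuring suppression of HDLM-2 proliferation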
Description: SANGER: Inhibition of human HDLM-2 cell growth in a cell viability assay.

SNU-C2B = type: functional, cell-based; details: Homo sapiens;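 further: cell viability readout used to measure compound-driven suppression of SNU-C2B cell proliferation, IC50 marking half-maximal growth inhibition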
Description: SANGER: Inhibition of human SNU-C2B cell growth in a cell viability assay.

TE-10 = type: functional, cell-based, Homo sapiens; details: Homo sapiens, TE-10;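 further: growth inhibition of TE-10 cells, measured by a cell viability assay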
Description: SANGER: Inhibition of human TE-10 cell growth in a cell viability assay.

NCI-H1155 = type: functional, cell-based, Homo sapiens; details: Homo sapiens, NCI-H1155;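 further: cell growth inhibition measured by a viability assay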
Description: SANGER: Inhibition of human NCI-H1155 cell growth in a cell viability assay.

UACC-257 = type: functional, cell-based, Homo sapiens; details: Homo sapiens, UACC-257
Description: SANGER: Inhibition of human UACC-257 cell growth in a cell viability assay.

A498 = type: functional, cell-based, Homo sapiens; details: Homo sapiens, A498;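 further: growth inhibition of human A498 cells, read out with a cell viability assay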
Description: SANGER: Inhibition of human A498 cell growth in a cell viability assay.

A388 = type: functional, cell-based; details: Homo sapiens;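 further: growth inhibition of human A388 cells, read out with a cell viability assay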
Description: SANGER: Inhibition of human A388 cell growth in a cell viability assay.

EW-1 = type: functional, cell-based, Homo sapiens; details: Homo sapiens, EW-1;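 further: growth inhibition of the human EW-1 cell line, read out by a cell viability assay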
Description: SANGER: Inhibition of human EW-1 cell growth in a cell viability assay.

L-428 = type: functional, cell-based, Homo sapiens; details: Homo sapiens, L-428
Description: SANGER: Inhibition of human L-428 cell growth in a cell viability assay.

U-87 MG = type: functional, cell-based, Homo sapiens, U-87MG ATCC; details: Homo sapiens, U-87 MG;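 further: growth inhibition of the cells measured with a viability assay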
Description: SANGER: Inhibition of human U-87-MG cell growth in a cell viability assay.

NCI-H82 = type: functional, cell-based, Homo sapiens; details: Homo sapiens, NCI-H82;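 further: growth inhibition of NCI-H82 cells, measured with a cell viability readout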
Description: SANGER: Inhibition of human NCI-H82 cell growth in a cell viability assay.

BE-13 = type: functional, cell-based, Homo sapiens; details: Homo sapiens, BE-13;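 further: growth inhibition of human BE-13 cells, measured with a cell viability assay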
Description: SANGER: Inhibition of human BE-13 cell growth in a cell viability assay.

SK-NEP-1 = type: functional, cell-based, Homo sapiens; details: Homo sapiens, SK-NEP-1;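 further: growth inhibition of human SK-NEP-1 cells, read out by a cell viability assay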
Description: SANGER: Inhibition of human SK-NEP-1 cell growth in a cell viability assay.

IST-MES1 = type: functional, cell-based, Homo sapiens; details: Homo sapiens, IST-MES1;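 further: growth inhibition of IST-MES1 cells, measured with a cell viability assay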
Description: SANGER: Inhibition of human IST-MES1 cell growth in a cell viability assay.

DU-4475 = type: functional, cell-based, Homo sapiens; details: Homo sapiens, DU-4475
Description: SANGER: Inhibition of human DU-4475 cell growth in a cell viability assay.

ES3 = type: functional, cell-based, Homo sapiens; details: Homo sapiens, ES3;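 further: growth inhibition of ES3 cells, read out with a cell viability assay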
Description: SANGER: Inhibition of human ES3 cell growth in a cell viability assay.

A253 cell line = type: functional, cell-based, Homo sapiens; details: Homo sapiens, A253;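 further: growth inhibition of A253 cells, read out with a cell viability assay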
Description: SANGER: Inhibition of human A253 cell growth in a cell viability assay.

CGTH-W-1 = type: functional, cell-based, Homo sapiens; details: Homo sapiens, CGTH-W-1;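 further: growth inhibition of human CGTH-W-1 cells measured by cell viability assay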
Description: SANGER: Inhibition of human CGTH-W-1 cell growth in a cell viability assay.

HCC2218 = type: functional, cell-based, Homo sapiens; details: Homo sapiens, HCC2218;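 further: cell viability assay read-out, with IC50 given as the concentration that inhibits growth of the cell line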
Description: SANGER: Inhibition of human HCC2218 cell growth in a cell viability assay.

NCI-H720 = type: functional, cell-based, Homo sapiens; details: Homo sapiens, NCI-H720;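 further: growth inhibition of human NCI-H720 cells determined by a cell viability assay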
Description: SANGER: Inhibition of human NCI-H720 cell growth in a cell viability assay.

SNU-5 = type: functional, cell-based, Homo sapiens; details: Homo sapiens, SNU-5;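 further: cell viability readout used to measure growth inhibition in human NCI-SNU-5 cells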
Description: SANGER: Inhibition of human NCI-SNU-5 cell growth in a cell viability assay.

NCI-H209 = type: functional, cell-based, Homo sapiens; details: Homo sapiens, NCI-H209;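 further: growth inhibition of human NCI-H209 cells, measured by a cell viability assay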
Description: SANGER: Inhibition of human NCI-H209 cell growth in a cell viability assay.

EW-3 = type: functional, cell-based, Homo sapiens; details: Homo sapiens, EW-3;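 further: cell viability assay read-out, IC50 reflects inhibition of growth of the EW-3 cells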
Description: SANGER: Inhibition of human EW-3 cell growth in a cell viability assay.

K5 = type: functional, cell-based, Homo sapiens; details: Homo sapiens, K5
Description: SANGER: Inhibition of human K5 cell growth in a cell viability assay.

CS(=O)(=O)N1CCN(Cc2cc3nc(-c4cccc5[nH]ncc45)nc(N4CCOCC4)c3s2)CC1 [PICTILISIB]
IC50 (NB6): > 4 µM | IC50 (SW982): > 4 µM | IC50 (BB65-RCC): > 4 µM | IC50 (SK-N-FI): > 4 µM | IC50 (EM-2): 2.51 µM | IC50 (MZ2-MEL): 3.66 µM | IC50 (MSTO-211H): > 4 µM | IC50 (DOHH-2): > 4 µM | IC50 (SJSA-1): 3.71 µM | IC50 (HCE-4): > 4 µM | IC50 (NEC8): 0.654 µM | IC50 (KP-N-YS): > 4 µM | IC50 (JAR): > 4 µM | IC50 (MC116): > 4 µM | IC50 (NB13): > 4 µM | IC50 (NCI-N87): 2.13 µM | IC50 (GCIY): 0.434 µM | IC50 (SW 954): > 4 µM | IC50 (KNS-42): > 4 µM | IC50 (NB69): 0.245 µM | IC50 (TGBC24TKB): 1.08 µM | IC50 (NCI-H1355): > 4 µM | IC50 (CW-2): > 4 µM | IC50 (C2BBe1): > 4 µM | IC50 (DMS-114): > 4 µM | IC50 (MV4-11): 0.724 µM | IC50 (BB30-HNC): > 4 µM | IC50 (HDLM-2): 0.949 µM | IC50 (SNU-C2B): > 4 µM | IC50 (TE-10): > 4 µM | IC50 (NCI-H1155): > 4 µM | IC50 (UACC-257): > 4 µM | IC50 (A498): 1.3 µM | IC50 (A388): > 4 µM | IC50 (EW-1): > 4 µM | IC50 (L-428): > 4 µM | IC50 (U-87 MG): > 4 µM | IC50 (NCI-H82): > 4 µM | IC50 (BE-13): > 4 µM | IC50 (SK-NEP-1): 0.726 µM | IC50 (IST-MES1): > 4 µM | IC50 (DU-4475): > 4 µM | IC50 (ES3): > 4 µM | IC50 (A253 cell line): > 4 µM | IC50 (CGTH-W-1): > 4 µM

NC1(c2ccc(-c3nc4ccn5c(=O)[nH]nc5c4cc3-c3ccccc3)cc2)CCC1 [MK-2206]
IC50 (NB6): > 4 µM | IC50 (SW982): > 4 µM | IC50 (BB65-RCC): > 4 µM | IC50 (SK-N-FI): > 4 µM | IC50 (HCC2218): 1.68 µM | IC50 (EM-2): 0.979 µM | IC50 (MZ2-MEL): > 4 µM | IC50 (MSTO-211H): > 4 µM | IC50 (DOHH-2): 1.28 µM | IC50 (SJSA-1): > 4 µM | IC50 (HCE-4): > 4 µM | IC50 (NEC8): 0.0965 µM | IC50 (KP-N-YS): > 4 µM | IC50 (JAR): > 4 µM | IC50 (MC116): > 4 µM | IC50 (NB13): > 4 µM | IC50 (NCI-N87): > 4 µM | IC50 (GCIY): > 4 µM | IC50 (SW 954): > 4 µM | IC50 (NCI-H720): 0.377 µM | IC50 (KNS-42): > 4 µM | IC50 (NB69): 2.39 µM | IC50 (SNU-5): > 4 µM | IC50 (TGBC24TKB): > 4 µM | IC50 (NCI-H1355): > 4 µM | IC50 (CW-2): > 4 µM | IC50 (C2BBe1): > 4 µM | IC50 (DMS-114): 3.62 µM | IC50 (MV4-11): 2.75 µM | IC50 (BB30-HNC): > 4 µM | IC50 (HDLM-2): > 4 µM | IC50 (SNU-C2B): > 4 µM | IC50 (TE-10): > 4 µM | IC50 (NCI-H1155): > 4 µM | IC50 (UACC-257): > 4 µM | IC50 (A498): > 4 µM | IC50 (A388): > 4 µM | IC50 (NCI-H209): > 4 µM | IC50 (EW-1): > 4 µM | IC50 (L-428): > 4 µM | IC50 (EW-3): 3.2 µM | IC50 (U-87 MG): > 4 µM | IC50 (NCI-H82): > 4 µM | IC50 (BE-13): > 4 µM | IC50 (SK-NEP-1): 1.14 µM | IC50 (IST-MES1): > 4 µM | IC50 (DU-4475): > 4 µM | IC50 (ES3): 2.5 µM | IC50 (A253 cell line): > 4 µM | IC50 (CGTH-W-1): > 4 µM

Cc1cc(N2CCOCC2)cc2[nH]c(-c3c(NC[C@@H](O)c4cccc(Cl)c4)cc[nH]c3=O)nc12
IC50 (NB6): > 5.12 µM | IC50 (SW982): 0.718 µM | IC50 (BB65-RCC): > 5.12 µM | IC50 (SK-N-FI): > 5.12 µM | IC50 (HCC2218): > 5.12 µM | IC50 (K5): 1.78 µM | IC50 (EM-2): > 5.12 µM | IC50 (MZ2-MEL): 4.8 µM | IC50 (MSTO-211H): > 5.12 µM | IC50 (DOHH-2): > 5.12 µM | IC50 (SJSA-1): 0.456 µM | IC50 (HCE-4): > 5.12 µM | IC50 (NEC8): > 5.12 µM | IC50 (KP-N-YS): > 5.12 µM | IC50 (JAR): > 5.12 µM | IC50 (MC116): > 5.12 µM | IC50 (NB13): > 5.12 µM | IC50 (GCIY): 0.404 µM | IC50 (SW 954): 0.49 µM | IC50 (NCI-H720): > 5.12 µM | IC50 (KNS-42): > 5.12 µM | IC50 (NB69): 0.293 µM | IC50 (SNU-5): > 5.12 µM | IC50 (TGBC24TKB): 0.275 µM | IC50 (NCI-H1355): 0.553 µM | IC50 (CW-2): > 5.12 µM | IC50 (C2BBe1): > 5.12 µM | IC50 (DMS-114): > 5.12 µM | IC50 (MV4-11): 0.206 µM | IC50 (BB30-HNC): 1.12 µM | IC50 (HDLM-2): > 5.12 µM | IC50 (SNU-C2B): 2.71 µM | IC50 (TE-10): 1.2 µM | IC50 (NCI-H1155): > 5.12 µM | IC50 (UACC-257): > 5.12 µM | IC50 (A498): > 5.12 µM | IC50 (A388): > 5.12 µM | IC50 (NCI-H209): > 5.12 µM | IC50 (EW-1): 0.173 µM | IC50 (L-428): > 5.12 µM | IC50 (EW-3): 4.76 µM | IC50 (U-87 MG): > 5.12 µM | IC50 (NCI-H82): > 5.12 µM | IC50 (BE-13): > 5.12 µM | IC50 (SK-NEP-1): > 5.12 µM | IC50 (IST-MES1): 1.12 µM | IC50 (DU-4475): > 5.12 µM | IC50 (ES3): > 5.12 µM | IC50 (A253 cell line): > 5.12 µM | IC50 (CGTH-W-1): > 5.12 µM
